Data published in the supplement of paper PMC10307832.

Tests used:
Assay in all cases: relative viability (nuclei count vs DMSO), 5 days (fraction); higher = more cells survive
[1] = tested on: NCI-H1666
Outline: (§1)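 After 5 days of treatment, lung cancer cells in 1536-well plates were fixed and stained in a single step (final 0.05% Triton X-100, 1% formaldehyde, 1 ug/ml Hoechst) and their nuclei counted on 4× images. Treatment had been applied by pin tool the day after seeding as one drug alone or as a fixed anchor-drug dose with five library-drug doses (not always all listed) in √10 steps. Relative viability is the nuclei count of treated wells divided by that of vehicle wells, and values are medians of duplicate plates.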

[2] = tested on: LK-2
Outline: as §1

[3] = tested on: RERF-LC-KJ
Outline: as §1

[4] = tested on: LU99A
Outline: as §1

[5] = tested on: HCC-366
Outline: as §1

[6] = tested on: NCI-H23
Outline: as §1

[7] = tested on: NCI-H2085
Outline: as §1

[8] = tested on: LCLC-103H
Outline: as §1

[9] = tested on: LOU-NH91
Outline: as §1

[10] = tested on: LXF-289
Outline: as §1

[11] = tested on: NCI-H2126
Outline: as §1

[12] = tested on: HCC-44
Outline: as §1

[13] = tested on: NCI-H2405
Outline: as §1

[14] = tested on: SW 1573
Outline: as §1

[15] = tested on: NCI-H1975
Outline: as §1

[16] = tested on: HCC-78
Outline: as §1

[17] = tested on: SK-LU-1
Outline: as §1

[18] = tested on: EPLC-272H
Outline: as §1

[19] = tested on: EMC-BAC-2
Outline: as §1

[20] = tested on: NCI-H3122
Outline: as §1

[21] = tested on: NCI-H1563
Outline: as §1

[22] = tested on: HCC-827
Outline: as §1

CC(C)Oc1cc(Nc2nc(N[C@@H](C)c3ccc(F)cn3)ncc2Cl)n[nH]1 [AZ23] + Cc1nc(NC(=O)N2CCC[C@H]2C(N)=O)sc1-c1ccnc(C(C)(C)C(F)(F)F)c1 [Alpelisib] (partner 2 µM)
relative viability ([1]; first compound 0.01 µM): 0.869
relative viability ([1]; first compound 0.03162 µM): 1.02
relative viability ([1]; first compound 0.3162 µM): 0.92
relative viability ([2]; first compound 0.03162 µM): 1.26
relative viability ([2]; first compound 0.3162 µM): 1.17
relative viability ([3]; first compound 0.01 µM): 0.714
relative viability ([3]; first compound 0.03162 µM): 0.925
relative viability ([3]; first compound 0.3162 µM): 0.845
relative viability ([4]; first compound 0.01 µM): 0.49
relative viability ([4]; first compound 0.03162 µM): 0.651
relative viability ([4]; first compound 0.3162 µM): 0.555
relative viability ([5]; first compound 0.01 µM): 0.391
relative viability ([5]; first compound 0.03162 µM): 0.517
relative viability ([5]; first compound 0.3162 µM): 0.334
relative viability ([6]; first compound 0.03162 µM): 0.749
relative viability ([6]; first compound 0.3162 µM): 0.573
relative viability ([7]; first compound 0.01 µM): 1
relative viability ([7]; first compound 0.03162 µM): 0.999
relative viability ([7]; first compound 0.3162 µM): 0.938
relative viability ([8]; first compound 0.01 µM): 0.953
relative viability ([8]; first compound 0.03162 µM): 1.01
relative viability ([8]; first compound 0.3162 µM): 0.996
relative viability ([9]; first compound 0.01 µM): 0.676
relative viability ([9]; first compound 0.03162 µM): 0.775
relative viability ([9]; first compound 0.3162 µM): 0.699
relative viability ([10]; first compound 0.01 µM): 1.15
relative viability ([10]; first compound 0.03162 µM): 1.08
relative viability ([10]; first compound 0.3162 µM): 1.05
relative viability ([11]; first compound 0.01 µM): 0.768
relative viability ([11]; first compound 0.03162 µM): 0.698
relative viability ([11]; first compound 0.3162 µM): 0.769
relative viability ([12]; first compound 0.01 µM): 0.858
relative viability ([12]; first compound 0.03162 µM): 0.915
relative viability ([12]; first compound 0.3162 µM): 0.871
relative viability ([13]; first compound 0.01 µM): 0.708
relative viability ([13]; first compound 0.03162 µM): 0.768
relative viability ([13]; first compound 0.3162 µM): 0.754
relative viability ([14]; first compound 0.01 µM): 0.852
relative viability ([14]; first compound 0.03162 µM): 0.845
relative viability ([14]; first compound 0.3162 µM): 0.712
relative viability ([15]; first compound 0.01 µM): 0.696
relative viability ([15]; first compound 0.03162 µM): 0.718
relative viability ([15]; first compound 0.3162 µM): 0.705
relative viability ([16]; first compound 0.01 µM): 0.348
relative viability ([16]; first compound 0.03162 µM): 0.286
relative viability ([16]; first compound 0.3162 µM): 0.306
relative viability ([17]; first compound 0.01 µM): 1.28
relative viability ([17]; first compound 0.03162 µM): 1.09
relative viability ([17]; first compound 0.3162 µM): 0.973
relative viability ([18]; first compound 0.01 µM): 0.873
relative viability ([18]; first compound 0.03162 µM): 1.18
relative viability ([19]; first compound 0.01 µM): 0.897
relative viability ([19]; first compound 0.03162 µM): 0.791
relative viability ([19]; first compound 0.3162 µM): 0.754
relative viability ([20]; first compound 0.01 µM): 0.811
relative viability ([20]; first compound 0.03162 µM): 0.827
relative viability ([20]; first compound 0.3162 µM): 0.77
relative viability ([21]; first compound 0.01 µM): 0.895
relative viability ([21]; first compound 0.03162 µM): 0.961
relative viability ([21]; first compound 0.3162 µM): 0.899
relative viability ([22]; first compound 0.01 µM): 1.11
relative viability ([22]; first compound 0.03162 µM): 1.05
relative viability ([22]; first compound 0.3162 µM): 1.07

COc1cc(N2CCC(C(N)=O)CC2)ccc1Nc1nc(N)c(Cl)c(Nc2ccccc2S(=O)(=O)C(C)C)n1 [HG-5-88-01] + C[C@]1(O)C[C@@H](c2nc(-c3ccc4ccc(-c5ccccc5)nc4c3)c3c(N)nccn32)C1 [Linsitinib] (partner 1 µM)
relative viability ([1]; first compound 0.04 µM): 0.958
relative viability ([1]; first compound 0.1265 µM): 0.882
relative viability ([1]; first compound 0.4 µM): 0.93
relative viability ([1]; first compound 1.265 µM): 0.76
relative viability ([1]; first compound 4 µM): 0.581
relative viability ([2]; first compound 0.04 µM): 0.591
relative viability ([2]; first compound 0.1265 µM): 0.519
relative viability ([2]; first compound 0.4 µM): 0.634
relative viability ([2]; first compound 4 µM): 0.768
relative viability ([3]; first compound 0.04 µM): 0.823
relative viability ([3]; first compound 0.1265 µM): 0.897
relative viability ([3]; first compound 0.4 µM): 0.849
relative viability ([3]; first compound 1.265 µM): 0.864
relative viability ([3]; first compound 4 µM): 0.539
relative viability ([4]; first compound 0.04 µM): 0.552
relative viability ([4]; first compound 0.1265 µM): 0.535
relative viability ([4]; first compound 0.4 µM): 0.531
relative viability ([4]; first compound 1.265 µM): 0.578
relative viability ([4]; first compound 4 µM): 0.589
relative viability ([5]; first compound 0.04 µM): 0.573
relative viability ([5]; first compound 0.1265 µM): 0.558
relative viability ([5]; first compound 0.4 µM): 0.492
relative viability ([5]; first compound 1.265 µM): 0.608
relative viability ([5]; first compound 4 µM): 0.912
relative viability ([6]; first compound 0.04 µM): 0.628
relative viability ([6]; first compound 0.1265 µM): 0.621
relative viability ([6]; first compound 0.4 µM): 0.652
relative viability ([6]; first compound 1.265 µM): 0.73
relative viability ([6]; first compound 4 µM): 0.61
relative viability ([7]; first compound 0.04 µM): 0.913
relative viability ([7]; first compound 0.1265 µM): 0.924
relative viability ([7]; first compound 0.4 µM): 0.809
relative viability ([7]; first compound 1.265 µM): 0.748
relative viability ([7]; first compound 4 µM): 0.92
relative viability ([8]; first compound 0.04 µM): 0.986
relative viability ([8]; first compound 0.1265 µM): 1.18
relative viability ([8]; first compound 0.4 µM): 1.03
relative viability ([8]; first compound 1.265 µM): 1.03
relative viability ([8]; first compound 4 µM): 1.21
relative viability ([9]; first compound 0.04 µM): 1
relative viability ([9]; first compound 0.1265 µM): 0.916
relative viability ([9]; first compound 0.4 µM): 0.841
relative viability ([9]; first compound 1.265 µM): 0.609
relative viability ([9]; first compound 4 µM): 0.659
relative viability ([10]; first compound 0.04 µM): 0.94
relative viability ([10]; first compound 0.1265 µM): 1
relative viability ([10]; first compound 0.4 µM): 0.961
relative viability ([10]; first compound 1.265 µM): 0.973
relative viability ([10]; first compound 4 µM): 1.04
relative viability ([11]; first compound 0.04 µM): 0.641
relative viability ([11]; first compound 0.1265 µM): 0.76
relative viability ([11]; first compound 0.4 µM): 0.721
relative viability ([11]; first compound 1.265 µM): 0.69
relative viability ([11]; first compound 4 µM): 0.716
relative viability ([12]; first compound 0.04 µM): 0.806
relative viability ([12]; first compound 0.1265 µM): 0.672
relative viability ([12]; first compound 0.4 µM): 0.56
relative viability ([12]; first compound 1.265 µM): 0.648
relative viability ([12]; first compound 4 µM): 0.751
relative viability ([13]; first compound 0.04 µM): 1.06
relative viability ([13]; first compound 0.1265 µM): 1.01
relative viability ([13]; first compound 0.4 µM): 0.807
relative viability ([13]; first compound 1.265 µM): 0.714
relative viability ([13]; first compound 4 µM): 1.02
relative viability ([14]; first compound 0.04 µM): 0.796
relative viability ([14]; first compound 0.1265 µM): 0.961
relative viability ([14]; first compound 0.4 µM): 0.855
relative viability ([14]; first compound 1.265 µM): 0.704
relative viability ([14]; first compound 4 µM): 0.83
relative viability ([15]; first compound 0.04 µM): 0.995
relative viability ([15]; first compound 0.1265 µM): 1
relative viability ([15]; first compound 0.4 µM): 0.682
relative viability ([15]; first compound 1.265 µM): 0.859
relative viability ([15]; first compound 4 µM): 0.497
relative viability ([16]; first compound 0.04 µM): 0.574
relative viability ([16]; first compound 0.1265 µM): 0.401
relative viability ([16]; first compound 0.4 µM): 0.273
relative viability ([16]; first compound 1.265 µM): 0.222
relative viability ([16]; first compound 4 µM): 0.263
relative viability ([17]; first compound 0.04 µM): 1.02
relative viability ([17]; first compound 0.1265 µM): 1
relative viability ([17]; first compound 0.4 µM): 1.09
relative viability ([17]; first compound 1.265 µM): 1.21
relative viability ([17]; first compound 4 µM): 0.996
relative viability ([18]; first compound 0.04 µM): 1.09
relative viability ([18]; first compound 0.1265 µM): 1.25
relative viability ([18]; first compound 0.4 µM): 1.38
relative viability ([18]; first compound 1.265 µM): 1.02
relative viability ([18]; first compound 4 µM): 0.264
relative viability ([19]; first compound 0.04 µM): 0.79
relative viability ([19]; first compound 0.1265 µM): 0.849
relative viability ([19]; first compound 0.4 µM): 0.771
relative viability ([19]; first compound 1.265 µM): 0.758
relative viability ([19]; first compound 4 µM): 0.851
relative viability ([20]; first compound 0.04 µM): 0.914
relative viability ([20]; first compound 0.1265 µM): 0.379
relative viability ([20]; first compound 0.4 µM): 0.197
relative viability ([20]; first compound 1.265 µM): 0.2
relative viability ([20]; first compound 4 µM): 0.226
relative viability ([21]; first compound 0.04 µM): 1.1
relative viability ([21]; first compound 0.1265 µM): 1.17
relative viability ([21]; first compound 0.4 µM): 1.23
relative viability ([21]; first compound 1.265 µM): 1.21
relative viability ([21]; first compound 4 µM): 1.21
relative viability ([22]; first compound 0.04 µM): 0.953
relative viability ([22]; first compound 0.1265 µM): 1.04
relative viability ([22]; first compound 0.4 µM): 0.934
relative viability ([22]; first compound 1.265 µM): 0.955
relative viability ([22]; first compound 4 µM): 0.69
